According to US20050282755A1, “Compositions having antimicrobial activity and uses thereof” (priority 2004, published 2005):
Values after ≈ are worked out from the molar mass of the structure shown. Where two headings read alike, the source gives them in different places. Non-standard residues stand in square brackets, D forms with d. Residues, ends and D or L forms follow the SMILES beside them. *: point of attachment. Lauroyl = CCCCCCCCCCCC(=O)*; Hexanoyl = CCCCCC(=O)*

How the values were obtained:
Assay type in all cases: cell-based
Salmonella dublin (Lane) = assay: MIC, NCCLS M7-A6 broth microdilution (Table 9, no superscript)
Method in brief: (§1)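 Broth microdilution in cation-adjusted Mueller Hinton broth with log-phase inoculum at 5×10^5 to 1×10^6 CFU/mL, incubated overnight at 37° C. MIC was the lowest peptide concentration showing no visible turbidity versus the no-peptide control.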

[1] = system: Candida albicans ATCC 18804; assay: MIC in yeasts, NCCLS M27-A2 broth microdilution, RPMI 1640 (Table 9, letter e)
Description: Briefly, RPMI 1640 supplemented with glutamine and phenol red as a pH indicator was used in the broth microdilution method. A 96-well plate was inoculated so that the final inoculum of yeast for each well contained between 0.5×10^3 and 2.5×10^3 CFU/milliliter. […] Plates were incubated for 24 to 48 hours at 37° C. The lowest concentration of peptide that contained no visible growth was determined as the MIC. MIC values that utilized this method of MIC determination are indicated in Table 9 with a subscript letter “e.” “Peptide Number” corresponds to peptide compositions and corresponding designations in Table 3.

[2] = system: Staphylococcus aureus ATCC 29213; assay: MIC, NCCLS M7-A6 broth microdilution, cation-adjusted Mueller Hinton broth (Table 9, no superscript)
Method in brief: as §1

[3] = system: Pseudomonas aeruginosa ATCC 27853; assay: MIC, NCCLS M7-A6 broth microdilution (Table 9, no superscript)
Method in brief: as §1

[4] = system: Escherichia coli ATCC 25922; assay: as above
Method in brief: as §1

[5] = system: Staphylococcus epidermidis ATCC 12228; assay: as above
Method in brief: as §1

[6] = no superscript: NCCLS M7-A6 broth microdilution

Molecule | MIC S. dublin (Salmonella dublin (Lane)) | MIC C. albicans ([1]; ATCC 18804) | MIC S. aureus ([2]; ATCC 29213) | MIC P. aeruginosa ([3]; ATCC 27853) | MIC E. coli ([4]; ATCC 25922) | MIC S. epidermidis ([5]; ATCC 12228) | MIC P. aeruginosa [3, 6] | MIC E. coli [4, 6] | MIC S. epidermidis [5, 6] | MIC S. dublin (Salmonella dublin (Lane); [6]) | MIC C. albicans ([1]; letter e: NCCLS M27-A2 broth microdilution, RPMI 1640) | MIC S. aureus [2, 6]
CCCCCCCCCCCC(=O)N[C@@H](Cc1c[nH]c2ccccc12)C(=O)N[C@@H](CCCNC(=N)N)C(=O)N[C@@H](CC(=O)O)C(=O)N[C@H](C(=O)N[C@@H](C)C(=O)N[C@@H](CCCNC(=N)N)C(=O)N[C@@H](CC(N)=O)C(=O)N[C@@H](Cc1ccccc1)C(=O)N[C@@H](CCSC)C(=O)N[C@@H](CCCNC(=N)N)C(N)=O)C(C)C [Peptide 112, Lauryl-WRDVARNFMR-NH2] (Lauroyl-WRDVARNFMR-NH2) | >64 µg/mL | >64e ug/mL | >64 µg/mL |  |  |  |  |  |  |  |  | 
CCCCCC(=O)N[C@H](CCCNC(=N)N)C(=O)N[C@H](CO)C(=O)N[C@H](CCCNC(=N)N)C(=O)N[C@H](Cc1c[nH]c2ccccc12)C(=O)N[C@H](CCCNC(=N)N)C(=O)N[C@H](CC(=O)O)C(=O)N[C@@H](C(=O)N[C@H](C)C(=O)N[C@H](CCCNC(=N)N)C(=O)N[C@H](CC(N)=O)C(=O)N[C@H](Cc1ccccc1)C(=O)N[C@H](CC(C)C)C(=O)N[C@H](CCCNC(=N)N)C(N)=O)C(C)C [Peptide 251, Hexyl-rsrwrdvarnflr-NH2] (Hexanoyl-[dR][dS][dR][dW][dR][dD][dV][dA][dR][dN][dF][dL][dR]-NH2) |  | 64e ug/mL |  |  |  |  |  |  |  |  |  | 
CCCCCCCCCCCC(=O)N[C@@H](CCCNC(=N)N)C(=O)N[C@@H](CO)C(=O)N[C@@H](CCCNC(=N)N)C(=O)N[C@@H](Cc1c[nH]c2ccccc12)C(=O)N[C@@H](CCCNC(=N)N)C(=O)N[C@@H](CC(=O)O)C(=O)N[C@H](C(=O)N[C@@H](C)C(=O)N[C@@H](CCCNC(=N)N)C(=O)N[C@@H](CC(N)=O)C(=O)N[C@@H](Cc1ccccc1)C(=O)N[C@@H](CC(C)C)C(=O)N[C@@H](CCCNC(=N)N)C(N)=O)C(C)C [Peptide 135, Lauryl-RSRWRDVARNFLR-NH2] (Lauroyl-RSRWRDVARNFLR-NH2) | 2 µg/mL (≈ 1.05 µM) | 2e ug/mL | 2 µg/mL (≈ 1.05 µM) | 4 µg/mL (≈ 2.09 µM) | 4 µg/mL (≈ 2.09 µM) | 1 µg/mL (≈ 0.523 µM) |  |  |  |  |  | 
CCCCCCCCCCCC(=O)N[C@@H](CCCNC(=N)N)C(=O)N[C@@H](CO)C(=O)N[C@@H](CCCNC(=N)N)C(=O)N[C@@H](Cc1c[nH]c2ccccc12)C(=O)N[C@@H](CCCNC(=N)N)C(=O)N[C@@H](CC(=O)O)C(=O)N[C@@H](Cc1c[nH]c2ccccc12)C(=O)N[C@@H](C)C(=O)N[C@@H](CCCNC(=N)N)C(=O)N[C@@H](CC(N)=O)C(=O)N[C@@H](Cc1c[nH]c2ccccc12)C(=O)N[C@@H](CCSC)C(=O)N[C@@H](CCCNC(=N)N)C(=O)N[C@@H](Cc1c[nH]c2ccccc12)C(N)=O [Peptide 144, Lauryl-RSRWRDWARNWMRW-NH2] (Lauroyl-RSRWRDWARNWMRW-NH2) | 64 µg/mL (≈ 28.5 µM) | 32e ug/mL | 32 µg/mL (≈ 14.3 µM) | >64 µg/mL | >64 µg/mL | 8 µg/mL (≈ 3.57 µM) |  |  |  |  |  | 
CCCCCCCCCCCC(=O)N[C@@H](C(=O)N[C@H](C)C(=O)N[C@H](CCCNC(=N)N)C(=O)N[C@H](CC(N)=O)C(=O)N[C@H](Cc1ccccc1)C(=O)N[C@H](CCSC)C(=O)N[C@H](CCCNC(=N)N)C(N)=O)C(C)C [Peptide 126, Lauryl-varnfmr-NH2] (Lauroyl-[dV][dA][dR][dN][dF][dM][dR]-NH2) | >64 µg/mL | 8e ug/mL | >64 µg/mL | >64 µg/mL | >64 µg/mL | >64 µg/mL |  |  |  |  |  | 
CCCCCCCCCCCC(=O)N[C@@H](CCCNC(=N)N)C(=O)N[C@@H](CO)C(=O)N[C@@H](CCCNC(=N)N)C(=O)N[C@@H](Cc1c[nH]c2ccccc12)C(=O)N[C@@H](CCCNC(=N)N)C(=O)N[C@@H](CC(=O)O)C(=O)N[C@H](C(N)=O)C(C)C [Peptide 103, Lauryl-RSRWRDV-NH2] (Lauroyl-RSRWRDV-NH2) | >64 µg/mL | >64e ug/mL | >32 µg/mL | >64 µg/mL | >64 µg/mL | 64 µg/mL (≈ 55.4 µM) |  |  |  |  |  | 
CCCCCCCCCCCC(=O)N[C@H](CCCNC(=N)N)C(=O)N[C@H](CC(=O)O)C(=O)N[C@@H](C(=O)N[C@H](C)C(=O)N[C@H](CCCNC(=N)N)C(=O)N[C@H](CC(N)=O)C(=O)N[C@H](Cc1ccccc1)C(N)=O)C(C)C [Peptide 124, Lauryl-rdvarnf-NH2] (Lauroyl-[dR][dD][dV][dA][dR][dN][dF]-NH2) | >64 µg/mL | 64e ug/mL | >64 µg/mL | >64 µg/mL | >64 µg/mL | >64 µg/mL |  |  |  |  |  | 
CCCCCCCCCCCC(=O)N[C@H](Cc1c[nH]c2ccccc12)C(=O)N[C@H](CCCNC(=N)N)C(=O)N[C@H](CC(=O)O)C(=O)N[C@@H](C(=O)N[C@H](C)C(=O)N[C@H](CCCNC(=N)N)C(=O)N[C@H](CC(N)=O)C(N)=O)C(C)C [Peptide 123, Lauryl-wrdvarn-NH2] (Lauroyl-[dW][dR][dD][dV][dA][dR][dN]-NH2) | >64 µg/mL | 64e ug/mL | >64 µg/mL | >64 µg/mL | >64 µg/mL | 64 µg/mL (≈ 58.3 µM) |  |  |  |  |  | 
Lauryl-dvarfm-NH2 [Peptide 125] |  |  |  |  |  |  | >64 µg/mL | >64 µg/mL | >64 µg/mL | >64 µg/mL | >64e ug/mL | >64 µg/mL
CCCCCCCCCCCC(=O)N[C@@H](CCCNC(=N)N)C(=O)N[C@@H](CO)C(=O)N[C@@H](CCCNC(=N)N)C(=O)N[C@@H](Cc1c[nH]c2ccccc12)C(=O)N[C@@H](CCCNC(=N)N)C(=O)N[C@@H](CC(=O)O)C(=O)N[C@@H](Cc1c[nH]c2ccccc12)C(=O)N[C@@H](Cc1c[nH]c2ccccc12)C(=O)N[C@@H](CCCNC(=N)N)C(=O)N[C@@H](CC(N)=O)C(=O)N[C@@H](Cc1c[nH]c2ccccc12)C(=O)N[C@@H](CCSC)C(=O)N[C@@H](CCCNC(=N)N)C(=O)N[C@@H](CC(C)C)C(=O)N[C@@H](CC(C)C)C(N)=O [Peptide 148, Lauryl-RSRWRDWWRNWMRLL-NH2] (Lauroyl-RSRWRDWWRNWMRLL-NH2) | >64 µg/mL | 4e ug/mL | >64 µg/mL | >64 µg/mL | >64 µg/mL | >64 µg/mL |  |  |  |  |  | 
CCCCCCCCCCCC(=O)N[C@H](CCCNC(=N)N)C(=O)N[C@H](CO)C(=O)N[C@H](CCCNC(=N)N)C(=O)N[C@H](Cc1c[nH]c2ccccc12)C(=O)N[C@H](CCCNC(=N)N)C(=O)N[C@H](CC(=O)O)C(=O)N[C@@H](C(=O)N[C@H](C)C(=O)N[C@H](CCCNC(=N)N)C(=O)N[C@H](CC(N)=O)C(N)=O)C(C)C [Peptide 117, Lauryl-rsrwrdvarn-NH2] (Lauroyl-[dR][dS][dR][dW][dR][dD][dV][dA][dR][dN]-NH2) | >64 µg/mL | 16e ug/mL | 32 µg/mL (≈ 21.4 µM) | 64 µg/mL (≈ 42.8 µM) | >64 µg/mL | 16 µg/mL (≈ 10.7 µM) |  |  |  |  |  | 
CCCCCCCCCCCC(=O)N[C@H](C)C(=O)N[C@H](CO)C(=O)N[C@H](CCCNC(=N)N)C(=O)N[C@H](Cc1c[nH]c2ccccc12)C(=O)N[C@H](CCCNC(=N)N)C(=O)N[C@H](CC(=O)O)C(=O)N[C@@H](C(=O)N[C@H](C)C(=O)N[C@H](CCCNC(=N)N)C(=O)N[C@H](CC(N)=O)C(=O)N[C@H](Cc1ccccc1)C(=O)N[C@H](CCSC)C(=O)N[C@H](CCCNC(=N)N)C(N)=O)C(C)C [Peptide 236, Lauryl-asrwrdvarnfmr-NH2] (Lauroyl-[dA][dS][dR][dW][dR][dD][dV][dA][dR][dN][dF][dM][dR]-NH2) | >64 µg/mL |  | 32 µg/mL (≈ 17.3 µM) | >64 µg/mL | 64 µg/mL (≈ 34.7 µM) | 16 µg/mL (≈ 8.67 µM) |  |  |  |  |  | 
